Measurements as given in patent US20250388575A1, “HETEROBIFUNCTIONAL COMPOUNDS AND METHODS OF TREATING DISEASE” (Halda Therapeutics OpCo, Inc., priority 2022, published 2025).

Columns and labels:
[1] = target: progesterone receptor ligand binding domain (LBD) (Homo sapiens (Human), UniProt P06401); test: FP assay for binding affinity to progesterone receptor (PolarScreen Progesterone Receptor Competitor Assay); settings: GST-tagged PR LBD, Fluormone tracer, fluorescence polarization, 2 hours at room temperature
Description: Compounds were tested using the PolarScreen™ Progesterone Receptor Competitor Assay Kit (Life Technologies Cat #A15905 or a15906), as per the manufacturer's instructions. Briefly, GST-tagged PR LBD, Fluormone tracer, and compound were mixed and incubated for 2 hours at room temperature in the dark. Following incubation, the plates were spun at 3000×g for 30 seconds, then sealed with an optical adhesive cover, and fluorescence polarization was measured using appropriate excitation and emission filters with an EnVision Plate Reader (Perkin Elmer). Compound concentration vs. mP value were plotted in Prism (GraphPad). A four-parameter non-linear regression curve fit was applied to dose-response data to determine the half-maximal inhibitory concentration (IC50) for each test compound.

[2] = target: BRD4-BD1 (Homo sapiens (Human), UniProt O60885); test: bromoKdELECT assay for binding affinity to BRD4-BD1; settings: 11-point 3-fold dilution
[3] = target: BRD4-BD2 (Homo sapiens (Human), UniProt O60885); test: bromoKdELECT assay for binding affinity to BRD4-BD2; settings: 11-point 3-fold dilution
[4] = system: T-Rex 293 cell line SC cells lacking increased expression of progesterone receptor isoform B protein; test: Cellular growth inhibition, T-Rex 293 SC cells lacking increased progesterone receptor isoform B expression (no doxycycline), CellTiter-Glo; assay type: cell-based; settings: T-Rex 293 SC cells not exposed to doxycycline, 72 hours
Description: (§1) The following types of cells were prepared for this experiment: (i) a T-Rex 293 cell line having increased expression of progesterone receptor isoform B protein due to exposure to doxycycline and (ii) a T-Rex 293 cell line lacking increased expression of progesterone receptor isoform B protein. Ability of the test compounds to inhibit proliferation of the foregoing cell types was evaluated according to the procedures set forth below.
(§2) The doxycycline-inducible progesterone receptor isoform B protein expressing cell line was established using the following protocol: T-Rex 293 cells were purchased from Invitrogen (Cat #R71007) and transfected using Lipofectamine 2000 with the wild-type progesterone receptor B protein sequence cloned into the pcDNA4/TO vector. Transfected cells were selected using 400 μg/mL Zeocin (Invitrogen Cat #R25001). Following selection, single clones were raised and maintained in Dulbecco's Modified Eagle Medium (DMEM) supplemented with 10% w/w Tetracycline-free fetal bovine serum (FBS) and 250 μg/mL Zeocin. Clones were analyzed for expression of progesterone receptor isoform B protein in the presence and absence of 10 ng/ml doxycycline (Sigma Cat #D9891), and a single doxycycline-inducible clone (hereinafter “SC”) was selected for use in downstream assays.
(§3) The SC cells were seeded on poly-D-lysine coated, black clear-bottom 384-well plates at 2500/well, in 25 μL Phenol Red Free Dulbecco's Modified Eagle Medium (DMEM) supplemented with 10% w/w charcoal-dextran treated fetal bovine serum (FBS) and 1% w/w pen-strep, with or without 10 ng/mL doxycycline. Pen-Strep is a commercially available mixture of penicillin G and streptomycin, which is used in mammalian cell culture media to prevent bacterial contamination. Phenol Red Free Dulbecco's Modified Eagle Medium (DMEM) supplemented with 10% w/w charcoal-dextran treated fetal bovine serum (FBS) and 1% w/w pen-strep, with or without 10 ng/mL doxycycline is herein referred to as Treatment Medium. Following seeding of cells in the plates, the plates were spun at 300×g for 30 seconds, then equilibrated to room temperature for 30 minutes, and then deposited in a humidified tissue culture incubator maintained at 37° C. with 5% CO2.
(§4) At 24 hours after seeding of the cells, dilutions of test compound were prepared in DMSO and dissolved in Treatment Medium, to achieve a final DMSO concentration of 0.5% w/w, thereby providing the Test Compound Solution. A 25 μL aliquot of the Test Compound Solution was added to cells in the well plates. An equal volume of a solution containing DMSO and Treatment Medium was used as a negative control. Following treatment of cells with Test Compound Solution or said equal volume of a solution containing DMSO and Treatment Medium, the plates were spun at 300×g for 30 seconds, and then left in an incubator for 72 hours.
(§5) At the end of the treatment duration, cell viability was quantified with CellTiter-Glo 2.0 reagent (Promega Cat #G9243). For this purpose, plates were equilibrated to room temperature for 30 minutes, and then 25 μL of CellTiter-Glo 2.0 reagent was added to cells in the plate wells. Plates were then agitated on a shaker for two minutes at 500 rpm and subsequently incubated at room temperature for 10 minutes. Following incubation, the plates were spun at 3000×g for 30 seconds, then sealed with an optical adhesive cover, and luminescence readings were measured with an EnVision Plate Reader (Perkin Elmer).
(§6) Data was normalized using zero luminescence for baseline. A four-parameter non-linear regression curve fit was applied to dose-response data in GraphPad Prism data analysis software to determine the half-maximal growth inhibitory concentration (GI50) for each test compound.

[5] = system: T-Rex 293 cell line SC cells having increased expression of progesterone receptor isoform B protein; test: Cellular growth inhibition, T-Rex 293 SC cells with increased progesterone receptor isoform B expression (doxycycline), CellTiter-Glo; assay type: cell-based; settings: progesterone receptor isoform B induced with 10 ng/mL doxycycline, 72 hours
Description: as §1, §2, §3, §4, §5, §6

progesterone receptor ligand binding domain (LBD), sequence (P06401 679-913): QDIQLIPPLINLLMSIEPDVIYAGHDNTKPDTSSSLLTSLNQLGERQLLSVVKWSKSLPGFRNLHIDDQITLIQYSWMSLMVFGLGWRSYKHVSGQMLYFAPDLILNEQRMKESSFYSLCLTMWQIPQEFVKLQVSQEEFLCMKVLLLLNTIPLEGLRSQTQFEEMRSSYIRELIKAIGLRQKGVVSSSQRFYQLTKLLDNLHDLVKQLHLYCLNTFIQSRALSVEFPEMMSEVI

| Compound | IC50 [1] [nM] | Kd [2] [nM] | Kd [3] [nM] | GI50 [4] [nM] | GI50 [5] [nM] |
| --- | --- | --- | --- | --- | --- |
| Cn1cc(-c2cc(C(C)(C)O)ccc2O[C@H]2C[C@H](N(C)CC3CCN(c4ccc(C(=O)N[C@H]5CC[C@H](Oc6ccc(C#N)c(Cl)c6)CC5)nn4)CC3)C2)c2cc[nH]c2c1=O [I-158, N-((1r,4r)-4-(3-chloro-4-cyanophenoxy)cyclohexyl)-6-(4-((((1r,3r)-3-(4-(2-hydroxypropan-2-yl)-2-(6-methyl-7-oxo-6,7-dihydro-1H-pyrrolo[2,3-c]pyridin-4-yl)phenoxy)cyclobutyl)(methyl)amino)methyl)piperidin-1-yl)pyridazine-3-carboxamide] | 500 to 2500 | 50 to 500 | 50 to 500 | – | – |
| CCS(=O)(=O)Nc1ccc(Oc2cccc(OCCOC3CCN(c4ccc(C(=O)N[C@H]5CC[C@H](Oc6ccc(C#N)c(Cl)c6)CC5)nn4)CC3)c2)c(-c2cn(C)c(=O)c3[nH]ccc23)c1 [I-1, N-[4-(3-chloro-4-cyano-phenoxy)cyclohexyl]-6-[4-[2-[3-[4-(ethylsulfonylamino)-2-(6-methyl-7-oxo-1H-pyrrolo[2,3-c]pyridin-4-yl)phenoxy]phenoxy]ethoxy]-1-piperidyl]pyridazine-3-carboxamide] | 500 to 2500 | – | – | < 500 | < 500 |
| CCS(=O)(=O)c1ccc(Oc2cccc(CCCOC3CC4(C3)CN(c3ccc(C(=O)N[C@H]5CC[C@H](Oc6ccc(C#N)c(Cl)c6)CC5)nn3)C4)c2F)c(-c2cn(C)c(=O)c3[nH]ccc23)c1 [I-46] | – | 500 to 2500 | 500 to 2500 | < 500 | < 500 |
| CCS(=O)(=O)c1ccc(Oc2cccc(CCC3CCN(c4ccc(C(=O)N[C@H]5CC[C@H](Oc6ccc(C#N)c(Cl)c6)CC5)nn4)CC3)c2F)c(-c2cn(C)c(=O)c3[nH]ccc23)c1 [I-51] | 50 to 500 | 50 to 500 | 50 to 500 | – | – |
| Cn1cc(-c2cc(C(C)(C)O)ccc2Oc2ccc(OC3CN(c4ccc(C(=O)N[C@H]5CC[C@H](Oc6ccc(C#N)c(Cl)c6)CC5)nn4)C3)cc2)c2cc[nH]c2c1=O [I-95, N-[4-(3-chloro-4-cyano-phenoxy)cyclohexyl]-6-[3-[4-[4-(1-hydroxy-1-methyl-ethyl)-2-(6-methyl-7-oxo-1H-pyrrolo[2,3-c]pyridin-4-yl)phenoxy]phenoxy]azetidin-1-yl]pyridazine-3-carboxamide] | – | 500 to 2500 | 500 to 2500 | < 500 | < 500 |
| CCS(=O)(=O)c1ccc(Oc2cccc(CCCC3CCN(c4ccc(C(=O)N[C@H]5CC[C@H](Oc6ccc(C#N)c(Cl)c6)CC5)nn4)CC3)c2F)c(-c2cn(C)c(=O)c3[nH]ccc23)c1 [I-52] | 50 to 500 | 50 to 500 | 50 to 500 | – | – |
| Cn1cc(-c2cc(C(C)(C)O)ccc2Oc2c(F)cc(CCOC3CCN(c4ccc(C(=O)N[C@H]5CC[C@H](Oc6ccc(C#N)c(Cl)c6)CC5)nn4)CC3)cc2F)c2cc[nH]c2c1=O [I-109] | 50 to 500 | 500 to 2500 | 500 to 2500 | – | – |
| Cn1cc(-c2cc(C(C)(C)O)ccc2Oc2ccc(CCC3CCN(c4ccc(C(=O)N[C@H]5CC[C@H](Oc6ccc(C#N)c(Cl)c6)CC5)nn4)CC3)cc2)c2cc[nH]c2c1=O [I-102] | – | > 2500 | > 2500 | < 500 | < 500 |
| CCS(=O)(=O)c1ccc(Oc2cc(F)c(CCC3CCN(c4ccc(C(=O)N[C@H]5CC[C@H](Oc6ccc(C#N)c(Cl)c6)CC5)nn4)CC3)cc2F)c(-c2cn(C)c(=O)c3[nH]ccc23)c1 [I-59] | – | 500 to 2500 | 500 to 2500 | 500 to 1500 | < 500 |
